Results as given in publication PMC4503722, “Novel Phenotypic Outcomes Identified for a Public Collection of Approved Drugs from a Publicly Accessible Panel of Assays” (PLoS ONE, 2015).

Tests used:
HT-29 = assay: cells; assay type: cell-based; conditions: assay number 28
SW480 = assay: cells; assay type: cell-based; conditions: assay number 24
HCT116 = assay: cells; assay type: cell-based; conditions: assay number 25; basal
hJAK2 = target: T1, hJAK2 (Homo sapiens, UniProt O60674); assay: Cerep LANCE kinase assay hJAK2 (S1 assay 33); assay type: biochemical; conditions: assay number 33
T1 construct: purchased Cerep (LANCE kinase assay platform, contract assay)
T1 sequence (O60674 whole entry): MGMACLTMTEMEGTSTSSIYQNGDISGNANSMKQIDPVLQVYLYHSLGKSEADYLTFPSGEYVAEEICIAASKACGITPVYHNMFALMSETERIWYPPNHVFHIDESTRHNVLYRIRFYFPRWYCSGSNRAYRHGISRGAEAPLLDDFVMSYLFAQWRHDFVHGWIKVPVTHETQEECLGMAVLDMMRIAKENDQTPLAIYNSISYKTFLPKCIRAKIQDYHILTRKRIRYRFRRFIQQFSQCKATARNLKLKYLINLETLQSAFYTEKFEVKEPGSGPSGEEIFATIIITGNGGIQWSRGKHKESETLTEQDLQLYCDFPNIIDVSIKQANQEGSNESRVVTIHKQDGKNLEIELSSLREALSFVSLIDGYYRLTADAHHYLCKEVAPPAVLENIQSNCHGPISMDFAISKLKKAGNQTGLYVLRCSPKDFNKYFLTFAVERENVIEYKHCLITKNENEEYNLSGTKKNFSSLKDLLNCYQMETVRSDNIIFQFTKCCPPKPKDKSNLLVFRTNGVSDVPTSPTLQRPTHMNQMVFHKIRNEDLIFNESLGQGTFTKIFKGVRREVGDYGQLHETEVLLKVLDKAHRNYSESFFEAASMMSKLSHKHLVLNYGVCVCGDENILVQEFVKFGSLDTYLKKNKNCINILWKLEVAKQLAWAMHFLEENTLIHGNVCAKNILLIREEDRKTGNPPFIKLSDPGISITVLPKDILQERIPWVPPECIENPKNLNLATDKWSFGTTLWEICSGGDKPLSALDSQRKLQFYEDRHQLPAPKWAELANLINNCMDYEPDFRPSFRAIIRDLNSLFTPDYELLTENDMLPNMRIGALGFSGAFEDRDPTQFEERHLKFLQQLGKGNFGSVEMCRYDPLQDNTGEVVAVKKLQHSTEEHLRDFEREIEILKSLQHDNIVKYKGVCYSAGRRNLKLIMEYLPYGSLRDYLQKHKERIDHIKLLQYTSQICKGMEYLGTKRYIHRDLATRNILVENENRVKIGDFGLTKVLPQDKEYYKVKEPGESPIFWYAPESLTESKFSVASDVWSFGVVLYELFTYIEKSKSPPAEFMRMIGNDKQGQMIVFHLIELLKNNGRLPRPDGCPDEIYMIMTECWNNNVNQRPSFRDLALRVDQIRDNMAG

[1] = system: alkaline phosphatase (ALP) activity in C2C12 cells; assay type: cell-based; conditions: assay number 6; concentration response
hp70S6K1 (RPS6KB1) = target: T2, hp70S6K1 (RPS6KB1) (Homo sapiens, UniProt P23443); assay: Cerep LANCE kinase assay hp70S6K1 (S1 assay 31); assay type: biochemical; conditions: assay number 31
T2 construct: purchased Cerep (LANCE kinase assay platform, contract assay)
T2 sequence (P23443 whole entry): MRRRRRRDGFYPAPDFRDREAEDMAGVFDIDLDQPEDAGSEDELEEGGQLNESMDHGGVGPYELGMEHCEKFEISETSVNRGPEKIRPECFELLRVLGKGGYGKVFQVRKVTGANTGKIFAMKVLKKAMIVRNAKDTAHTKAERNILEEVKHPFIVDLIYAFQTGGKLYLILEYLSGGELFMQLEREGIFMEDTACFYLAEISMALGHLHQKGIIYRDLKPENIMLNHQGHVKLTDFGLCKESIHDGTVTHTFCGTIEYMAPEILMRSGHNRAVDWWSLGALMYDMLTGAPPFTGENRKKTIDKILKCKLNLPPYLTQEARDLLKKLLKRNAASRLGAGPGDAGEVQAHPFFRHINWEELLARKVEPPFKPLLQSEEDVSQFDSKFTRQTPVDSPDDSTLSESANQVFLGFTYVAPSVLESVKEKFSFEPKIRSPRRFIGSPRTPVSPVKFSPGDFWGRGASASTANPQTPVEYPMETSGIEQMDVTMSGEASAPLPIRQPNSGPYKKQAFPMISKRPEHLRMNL

DLD-1 = assay: cells; assay type: cell-based; conditions: assay number 23
[2] = system: nuclear β-catenin in C2C12 cells; assay: cells; assay type: cell-based; conditions: assay number 5; concentration response
SNU-C1 = assay: cells; assay type: cell-based; conditions: assay number 30
hKDR = target: T3, hKDR (Homo sapiens, UniProt P35968); assay: Cerep LANCE kinase assay hKDR (S1 assay 32); assay type: biochemical; conditions: assay number 32
T3 construct: purchased Cerep (LANCE kinase assay platform, contract assay)
T3 sequence (P35968 20-1356): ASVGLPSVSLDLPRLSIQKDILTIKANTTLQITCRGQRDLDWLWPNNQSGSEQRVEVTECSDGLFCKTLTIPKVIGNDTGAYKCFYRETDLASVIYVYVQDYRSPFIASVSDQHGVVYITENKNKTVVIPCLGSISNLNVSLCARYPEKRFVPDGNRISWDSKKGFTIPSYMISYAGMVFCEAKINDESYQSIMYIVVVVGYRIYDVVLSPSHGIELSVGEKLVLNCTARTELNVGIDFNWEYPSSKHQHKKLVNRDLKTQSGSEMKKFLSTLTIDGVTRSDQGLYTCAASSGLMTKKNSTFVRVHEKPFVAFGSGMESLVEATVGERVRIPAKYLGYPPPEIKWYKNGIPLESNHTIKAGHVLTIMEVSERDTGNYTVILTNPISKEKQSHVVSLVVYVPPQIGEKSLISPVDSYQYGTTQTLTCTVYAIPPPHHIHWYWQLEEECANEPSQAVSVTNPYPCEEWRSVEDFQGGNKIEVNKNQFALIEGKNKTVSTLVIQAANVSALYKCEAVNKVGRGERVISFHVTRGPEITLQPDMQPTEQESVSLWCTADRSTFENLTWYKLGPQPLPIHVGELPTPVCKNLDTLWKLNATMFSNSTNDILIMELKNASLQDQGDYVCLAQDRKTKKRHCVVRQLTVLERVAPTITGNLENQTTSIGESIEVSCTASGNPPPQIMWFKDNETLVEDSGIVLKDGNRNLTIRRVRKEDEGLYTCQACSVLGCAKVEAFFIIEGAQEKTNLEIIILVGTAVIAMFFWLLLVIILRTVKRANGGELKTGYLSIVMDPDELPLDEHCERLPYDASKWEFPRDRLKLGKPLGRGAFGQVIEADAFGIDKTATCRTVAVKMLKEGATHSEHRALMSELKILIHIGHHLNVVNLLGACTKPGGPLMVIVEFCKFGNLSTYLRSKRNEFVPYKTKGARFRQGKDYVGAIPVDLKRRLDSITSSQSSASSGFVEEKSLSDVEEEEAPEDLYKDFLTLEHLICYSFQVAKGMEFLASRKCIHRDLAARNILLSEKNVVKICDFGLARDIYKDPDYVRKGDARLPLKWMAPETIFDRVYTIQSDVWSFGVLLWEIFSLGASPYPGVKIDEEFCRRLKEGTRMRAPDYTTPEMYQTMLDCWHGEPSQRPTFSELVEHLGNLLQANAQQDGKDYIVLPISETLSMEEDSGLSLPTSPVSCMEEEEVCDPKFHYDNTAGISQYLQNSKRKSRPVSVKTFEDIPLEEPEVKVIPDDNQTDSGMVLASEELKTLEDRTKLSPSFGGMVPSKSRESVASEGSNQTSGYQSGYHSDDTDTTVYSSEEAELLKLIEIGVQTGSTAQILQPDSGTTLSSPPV

RKO = assay: cells; assay type: cell-based; conditions: assay number 29
hFLT3 = target: T4, hFLT3 (Homo sapiens, UniProt P36888); assay: Cerep LANCE kinase assay hFLT3 (S1 assay 35); assay type: biochemical; conditions: assay number 35
T4 construct: purchased Cerep (LANCE kinase assay platform, contract assay)
T4 sequence (P36888 27-993): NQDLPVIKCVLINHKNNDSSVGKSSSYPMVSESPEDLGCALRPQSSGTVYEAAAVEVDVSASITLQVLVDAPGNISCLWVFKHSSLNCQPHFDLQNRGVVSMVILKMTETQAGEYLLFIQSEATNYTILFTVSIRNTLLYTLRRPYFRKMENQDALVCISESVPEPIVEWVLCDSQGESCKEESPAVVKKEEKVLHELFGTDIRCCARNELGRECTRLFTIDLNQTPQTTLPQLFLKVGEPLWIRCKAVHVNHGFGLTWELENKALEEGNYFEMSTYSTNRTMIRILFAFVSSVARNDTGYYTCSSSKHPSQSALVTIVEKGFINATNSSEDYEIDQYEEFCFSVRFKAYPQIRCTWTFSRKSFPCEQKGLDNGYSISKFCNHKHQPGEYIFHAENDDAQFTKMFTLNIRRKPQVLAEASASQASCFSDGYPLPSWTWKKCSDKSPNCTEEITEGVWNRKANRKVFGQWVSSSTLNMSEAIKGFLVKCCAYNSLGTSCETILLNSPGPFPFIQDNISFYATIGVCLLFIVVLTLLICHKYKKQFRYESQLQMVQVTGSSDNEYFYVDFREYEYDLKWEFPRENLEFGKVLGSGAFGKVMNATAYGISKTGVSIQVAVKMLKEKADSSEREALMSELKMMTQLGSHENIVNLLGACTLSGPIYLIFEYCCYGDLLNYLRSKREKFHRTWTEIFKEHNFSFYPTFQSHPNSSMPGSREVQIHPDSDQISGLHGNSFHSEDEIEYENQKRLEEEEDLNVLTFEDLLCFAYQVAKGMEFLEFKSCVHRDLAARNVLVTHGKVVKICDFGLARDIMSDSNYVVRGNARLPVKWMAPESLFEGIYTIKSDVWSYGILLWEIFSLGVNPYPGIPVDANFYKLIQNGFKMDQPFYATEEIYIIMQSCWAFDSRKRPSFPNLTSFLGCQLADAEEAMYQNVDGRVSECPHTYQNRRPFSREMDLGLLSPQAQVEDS

[3] = system: HCT116 cells treated with a GSK3β inhibitor; assay: cells; assay type: cell-based; conditions: assay number 26; GSK3b inhibitor pretreated
HeLa cells = assay: cells; assay type: cell-based; conditions: for Hela CellCycMod PI 2N IC50/EC50: assay number 14; for Hela CellCycMod PI S Phase IC50/EC50: assay number 15; for Hela CellCycMod PI 4N IC50/EC50: assay number 16; for Hela CellCycMod PI MI IC50/EC50: assay number 17; for Hela CellCycMod PI Cell Number IC50/EC50: assay number 18
[4] = system: ECFC/ADSC co-culture cell nuclei number
Colo320 = assay: cells; assay type: cell-based; conditions: assay number 27
hGSK3b = target: T5, hGSK3b (Homo sapiens, UniProt P49841); assay: Cerep LANCE kinase assay hGSK3b (S1 assay 34); assay type: biochemical; conditions: assay number 34
T5 construct: purchased Cerep (LANCE kinase assay platform, contract assay)
T5 sequence (P49841 whole entry): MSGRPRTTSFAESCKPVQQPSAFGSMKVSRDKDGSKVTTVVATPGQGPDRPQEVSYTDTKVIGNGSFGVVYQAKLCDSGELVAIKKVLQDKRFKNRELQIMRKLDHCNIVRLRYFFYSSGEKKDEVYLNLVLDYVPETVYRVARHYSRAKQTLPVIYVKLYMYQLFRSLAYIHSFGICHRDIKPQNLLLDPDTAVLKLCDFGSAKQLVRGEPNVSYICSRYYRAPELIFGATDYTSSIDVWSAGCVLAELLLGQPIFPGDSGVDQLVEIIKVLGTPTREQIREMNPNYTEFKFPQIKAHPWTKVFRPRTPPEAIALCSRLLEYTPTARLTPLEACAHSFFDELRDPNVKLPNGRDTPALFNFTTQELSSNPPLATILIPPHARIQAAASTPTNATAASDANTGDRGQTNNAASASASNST

[5] = system: endothelial tube formation in co-cultures of ECFCs and ADSCs treated with VEGF; assay: cells; assay type: cell-based, human

SMILES: Cc1cc(=O)c2c(O)c3c(O)cc(=O)c4c3c3c(cc(O)c1c23)C(C)(C)C=4O [NCGC00160275-03]
- Basal_Viability ATP HT-29 IC50/EC50 (HT-29; basal): 3.006 µM
- Basal_Viability ATP SW480 IC50/EC50 (SW480; basal): 0.05797 µM
- Basal_Viability ATP HCT116 IC50/EC50 (HCT116): 0.07747 µM
- hJAK2 LANCE IC50/EC50 (hJAK2): > 20 µM
- WntCondMedia_Alk Phos C2C12 IC50/EC50 [1]: 2.9111 µM
- hp70S6K1 LANCE IC50/EC50 (hp70S6K1 (RPS6KB1)): > 20 µM
- Basal_Viability ATP DLD-1 IC50/EC50 (DLD-1; basal): 0.07089 µM
- WntCondMedia_bCatenin C2C12 IC50/EC50 [2]: 1.0715 µM
- Basal_Viability ATP SNU-C1 IC50/EC50 (SNU-C1; basal): 0.3321 µM
- hKDR LANCE IC50/EC50 (hKDR): > 20 µM
- Basal_Viability ATP RKO IC50/EC50 (RKO; basal): 0.0754 µM
- hFLT3 LANCE IC50/EC50 (hFLT3): 1.97 µM
- GSK3b inh pretreated_Viability ATP HCT116 IC50/EC50 [3]: 0.05735 µM
- Hela CellCycMod PI 2N IC50/EC50 (HeLa cells): > 10 µM
- Hela CellCycMod PI S Phase IC50/EC50 (HeLa cells): > 10 µM
- Hela CellCycMod PI 4N IC50/EC50 (HeLa cells): > 10 µM
- Hela CellCycMod PI MI IC50/EC50 (HeLa cells): > 10 µM
- Hela CellCycMod PI Cell Number IC50/EC50 (HeLa cells): 1.0003 µM
- VEGF_ADSC\ECFC Angio Hoechst NucArea IC50/EC50 [4]: 2.074 µM
- Basal_Viability ATP Colo 320 IC50/EC50 (Colo320; basal): 0.08199 µM
- hGSK3b LANCE IC50/EC50 (hGSK3b): 6.9 µM
- VEGF_ADSC\ECFC Angio CD31 TubeArea IC50/EC50 [5]: 0.1005 µM

SMILES: COc1cc(NCc2ccc3nc(N)nc(N)c3c2C)cc(OC)c1OC [NCGC00161419-05]
- Basal_Viability ATP HT-29 IC50/EC50 (HT-29): 0.02122 µM
- Basal_Viability ATP SW480 IC50/EC50 (SW480): 0.0591 µM
- Basal_Viability ATP HCT116 IC50/EC50 (HCT116): 0.02309 µM
- hJAK2 LANCE IC50/EC50 (hJAK2): > 20 µM
- WntCondMedia_Alk Phos C2C12 IC50/EC50 [1]: > 20 µM
- hp70S6K1 LANCE IC50/EC50 (hp70S6K1 (RPS6KB1)): > 20 µM
- Basal_Viability ATP DLD-1 IC50/EC50 (DLD-1): 0.1951 µM
- WntCondMedia_bCatenin C2C12 IC50/EC50 [2]: 0.0033 µM
- Basal_Viability ATP SNU-C1 IC50/EC50 (SNU-C1): 5.1323 µM
- hKDR LANCE IC50/EC50 (hKDR): > 20 µM
- Basal_Viability ATP RKO IC50/EC50 (RKO): 0.00272 µM
- hFLT3 LANCE IC50/EC50 (hFLT3): > 20 µM
- GSK3b inh pretreated_Viability ATP HCT116 IC50/EC50 [3]: 0.00392 µM
- Hela CellCycMod PI 2N IC50/EC50 (HeLa cells): > 10 µM
- Hela CellCycMod PI S Phase IC50/EC50 (HeLa cells): > 10 µM
- Hela CellCycMod PI 4N IC50/EC50 (HeLa cells): > 10 µM
- Hela CellCycMod PI MI IC50/EC50 (HeLa cells): > 10 µM
- Hela CellCycMod PI Cell Number IC50/EC50 (HeLa cells): 3.8068 µM
- VEGF_ADSC\ECFC Angio Hoechst NucArea IC50/EC50 [4]: > 10 µM
- Basal_Viability ATP Colo 320 IC50/EC50 (Colo320): 0.3859 µM
- hGSK3b LANCE IC50/EC50 (hGSK3b): > 20 µM
- VEGF_ADSC\ECFC Angio CD31 TubeArea IC50/EC50 [5]: 4.418 µM

SMILES: COc1ccc2cc1Oc1ccc(cc1)C[C@H]1c3c(cc4c(c3Oc3cc5c(cc3OC)CCN(C)[C@@H]5C2)OCO4)CCN1C [NCGC00161621-03]
- Basal_Viability ATP HT-29 IC50/EC50 (HT-29): 1.365 µM
- Basal_Viability ATP SW480 IC50/EC50 (SW480): 0.308 µM
- Basal_Viability ATP HCT116 IC50/EC50 (HCT116): 9.5422 µM
- hJAK2 LANCE IC50/EC50 (hJAK2): > 20 µM
- WntCondMedia_Alk Phos C2C12 IC50/EC50 [1]: 2.0494 µM
- hp70S6K1 LANCE IC50/EC50 (hp70S6K1 (RPS6KB1)): > 20 µM
- Basal_Viability ATP DLD-1 IC50/EC50 (DLD-1): 12.3697 µM
- WntCondMedia_bCatenin C2C12 IC50/EC50 [2]: 5.6301 µM
- Basal_Viability ATP SNU-C1 IC50/EC50 (SNU-C1): 7.483 µM
- hKDR LANCE IC50/EC50 (hKDR): > 20 µM
- Basal_Viability ATP RKO IC50/EC50 (RKO): 3.787 µM
- hFLT3 LANCE IC50/EC50 (hFLT3): > 20 µM
- GSK3b inh pretreated_Viability ATP HCT116 IC50/EC50 [3]: 3.567 µM
- Hela CellCycMod PI 2N IC50/EC50 (HeLa cells): > 10 µM
- Hela CellCycMod PI S Phase IC50/EC50 (HeLa cells): > 10 µM
- Hela CellCycMod PI 4N IC50/EC50 (HeLa cells): > 10 µM
- Hela CellCycMod PI MI IC50/EC50 (HeLa cells): > 10 µM
- Hela CellCycMod PI Cell Number IC50/EC50 (HeLa cells): 5.5384 µM
- VEGF_ADSC\ECFC Angio Hoechst NucArea IC50/EC50 [4]: > 10 µM
- Basal_Viability ATP Colo 320 IC50/EC50 (Colo320): 1.426 µM
- hGSK3b LANCE IC50/EC50 (hGSK3b): > 20 µM
- VEGF_ADSC\ECFC Angio CD31 TubeArea IC50/EC50 [5]: 3.0213 µM
